Measurements from patent US20210379210A1, “RADIOLIGANDS FOR IMAGING THE LPA1 RECEPTOR” (BRISTOL-MYERS SQUIBB COMPANY, priority 2018, published 2021).

Target: human LPA1 (Homo sapiens, UniProt Q92633)
Test: In-vitro whole cell binding: competition with the ^18F tracer
Details: CHO cells overexpressing human LPA1; ^18F tracer 3.8 nM; room temperature 1 hr; read-out: IC50, inhibition of binding of the ^18F tracer
Protocol: The effectiveness of compounds of the present invention as LPA1 inhibitors can be determined in an LPA1 binding assay as follows: Chinese hamster ovary cells overexpressing human LPA1 were maintained in F12 medium (Gibco #11765) supplemented with 10% fetal bovine serum and 1 mg/ml hygromycin (Invitrogen #10687-010). On day of assay, 150 cm^2 flasks of subconfluent cells were harvested with TripLE Express Dissociation reagent (Gibco #12605-010), counted, centrifuged, and resuspended in ice-cold Binding Assay Buffer (BAB: 50 mM HEPES pH 7.2, 100 mM NaCl, 2 mM EDTA) at 2×10^6 cells per ml. Cells were kept on ice until use. Test compound dilution plates were prepared by serially diluting test compounds (2 mM stock in 100% DMSO, […] dilutions) in DMSO, then diluting 1:50 in BAB to generate twelve half-log test concentrations at 4× final concentration. Binding assay were carried out in non-binding surface 96-well plates (Corning #3605) at room temperature for 1 hour. […] Individual filter discs were cut out of the filter plate and counted in a gamma counter. IC50 values were determined by fitting the data to a 4-parameter logistic equation (GraphPad Prism, San Diego Calif.).

Sequence of human LPA1 (Q92633 whole entry): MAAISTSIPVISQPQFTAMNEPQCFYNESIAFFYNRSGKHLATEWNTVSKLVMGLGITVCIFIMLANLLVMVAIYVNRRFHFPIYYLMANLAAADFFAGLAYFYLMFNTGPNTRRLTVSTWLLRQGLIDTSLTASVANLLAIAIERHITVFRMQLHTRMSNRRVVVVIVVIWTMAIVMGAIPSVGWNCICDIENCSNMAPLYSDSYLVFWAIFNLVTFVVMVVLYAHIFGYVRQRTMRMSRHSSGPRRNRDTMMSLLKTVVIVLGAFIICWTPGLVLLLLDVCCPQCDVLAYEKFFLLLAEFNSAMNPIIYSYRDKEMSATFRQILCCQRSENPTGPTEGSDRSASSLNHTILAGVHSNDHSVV

Compound `Cc1nc(-c2nnn(C)c2COC(=O)N(C)CCCCF)ccc1O[C@H]1CCC[C@H](C(=O)O)C1` [Example 14] has an IC50 of 24.5 nM.
